Reference: patent US20210221785A1, “AMINO-PYRIMIDONYL DERIVATIVES, A PROCESS FOR THEIR PREPARATION AND PHARMACEUTICAL COMPOSITIONS CONTAINING THEM” (LES LABORATOIRES SERVIER, priority 2018, published 2021)

Columns and labels:
[1] = biological target: T1, His-His-USP7 (aa208-560, |C315A|) (Homo sapiens, UniProt Q93009, C315A); assay: Evaluation of the inhibition of USP7 by the Fluorescence Intensity (FLINT) readings; type: biochemical; conditions: 0.25 nM His-His-USP7, compound incubated 60 minutes at 30° C., 500 nM Ubiquitin-Rhodamine-110 substrate; 50% reduction in kinetic rate
T1 construct: His-His-USP7 (aa208-560, |C315A|); His-His (N)
T1 sequence (Q93009 208-560 C315A): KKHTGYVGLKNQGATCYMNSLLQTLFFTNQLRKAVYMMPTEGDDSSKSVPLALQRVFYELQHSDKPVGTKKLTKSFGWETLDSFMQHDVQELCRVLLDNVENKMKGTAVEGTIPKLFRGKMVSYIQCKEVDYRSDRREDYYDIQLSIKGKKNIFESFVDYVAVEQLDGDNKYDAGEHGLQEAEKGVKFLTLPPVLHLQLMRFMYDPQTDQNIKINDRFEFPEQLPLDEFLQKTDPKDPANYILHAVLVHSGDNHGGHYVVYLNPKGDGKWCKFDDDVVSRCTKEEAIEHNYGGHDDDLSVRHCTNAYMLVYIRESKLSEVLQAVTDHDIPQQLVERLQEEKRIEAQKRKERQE
Procedure, shortened: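 0.25 nM His-His-USP7 (aa208–560, C315A) preincubated 60 min at 30 °C with compound in 100 mM Bicine pH 8.0, 0.01% Triton X-100, 1 mM TCEP, 10% DMSO. Reaction started with 500 nM ubiquitin-rhodamine-110 and fluorescence (Ex485/Em535) read every 3 min for 21 min. IC50 derived from kinetic-rate reduction over an 11-point curve, 4-parameter fit.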

[2] = system: Z138 mantle cell lymphoma tumour cell lines; assay: In vitro cytotoxicity, MTT assay; type: cell-based; conditions: Homo sapiens, Z-138, 96 h, Z138 cells exposed to the test compounds for 96 hours; cell viability vs DMSO treated cells
Experimental: The cytotoxicity studies were evaluated by MTT [3-(4,5-dimethylthiazol-2-yl)-2,5-diphenyltetrazolium bromide] assay and carried out on Z138 mantle cell lymphoma tumour cell lines. The cells are distributed onto microplates and exposed to the test compounds for 96 hours. MTT is then added for 4 hours and converted by NAD(P)H-dependent cellular oxidoreductase enzymes in formazan, which has a purple color. The viable cell number is proportional to the production of formuan salts and cell viability can be quantified by the absorbance of the solution at 540 nm with a speetrophotometer (Carmichael et al., Cancer Res. 1987, 47, 936-942).

Row | IC50 [1] [nM] | SMILES | IC50 [2] [µM]
1 | 15 | CCC(N)c1ccc(Oc2ncn(CC3(O)CCN(C(=O)[C@@H]4CCC(F)(F)C[C@H]4c4ccccc4)CC3)c(=O)c2N)cc1 (stereo partly drawn) [Example 56, 5-amino-6-[4-(1-aminopropyl)phenoxy]-3-({1-[(1R,2R)-4,4-difluoro-2-phenylcyclohexane-1-carbonyl]-4-hydroxypiperidin-4-yl}methyl)pyrimidin-4(3H)-one] | 0.539
2 | 21 | Nc1c(Oc2cccc(O)c2)ncn(CC2(O)CCN(C(=O)[C@@H]3CCC(F)(F)C[C@H]3c3ccccc3)CC2)c1=O [Example 64, 5-amino-3-({1-[(1R,2R)-4,4-difluoro-2-phenylcyclohexnne-1-carbonyl]-4-hydroxypiperidin-4-yl}methyl)-6-(3-hydroxyphenoxy)pyrimidin-4(3H)-one] | 0.014
3 | 11 | NCc1ccc(Oc2ncn(CC3(O)CCN(C(=O)[C@@H]4CCC(F)(F)C[C@H]4c4ccccc4)CC3)c(=O)c2N)cc1Cl [Example 66, 5-amino-6-[4-(aminomethyl)-3-chlorophenoxy]-3-({1-[(1R,2R)-4,4-difluoro-2-phenylcyclohexane-1-carbonyl]-4-hydroxypiperidin-4-yl}methyl)pyrimidin-4(3H)-one] | 0.301
4 | 39 | NCCCc1ccc(Oc2ncn(CC3(O)CCN(C(=O)[C@@H]4CCC(F)(F)C[C@H]4c4ccccc4)CC3)c(=O)c2N)cc1 [Example 68, 5-amino-6-[4-(3-aminopropyl)phenoxy]-3-([1-[(1R,2R)-4,4-difluoro-2-phenylcyclohexane-1-carbonyl]-4-hydroxypiperidin-4-yl]methyl)pyrimidin-4(3H)-one] | 0.454
5 | 10 | CC(C)(C)NCc1ccc(Oc2ncn(CC3(O)CCN(C(=O)[C@@H]4CCC(F)(F)C[C@H]4c4ccccc4)CC3)c(=O)c2N)cc1 [Example 75, 5-amino-6-{4-[(tert-butylamino)methyl]phenoxy}-3-({1-[(1R,2R)-4,4-difluoro-2-phenylcyclohexane-1-carbonyl]-4-hydroxypiperidin-4-yl}methyl)pyrimidin-4(3H)-one] | 0.184
6 | 25 | Nc1c(Oc2ccc(CNC3CC3)cc2)ncn(CC2(O)CCN(C(=O)[C@@H]3CCC(F)(F)C[C@H]3c3ccccc3)CC2)c1=O [Example 77] | 0.156
7 | 92 | Nc1c(Oc2ccc(F)cc2)ncn(CC2(O)CCN(C(=O)[C@@H]3CCC(F)(F)C[C@H]3c3ccsc3)CC2)c1=O [Example 89, 5-amino-3-({1-[(1R,2R)-4,4-difluoro-2-(thiophen-3-yl)cyclohexane-1-carbonyl]-4-hydroxypiperidin-4-yl}methyl)-6-(4-fluorophenoxy)pyrimidin-4(3H)-one] | 0.055

Continued, compound first:

Row | SMILES | IC50 [1] [nM] | IC50 [2] [µM]
8 | Nc1c(Oc2ccc(CCO)cc2)ncn(CC2(O)CCN(C(=O)[C@@H]3CCC(F)(F)C[C@H]3c3ccccc3)CC2)c1=O [Example 36, 5-amino-3-({1-[(1R,2R)-4,4-difluoro-2-phenylcyclohexane-1-carbonyl]-4-hydroxypiperidin-4-}methyl)-6-[4-(2-hydroxyethyl)phenoxy]pyrimdin-4(3H)-one] | 29 | 0.035
9 | Nc1c(Oc2ccc(CC(F)F)cc2)ncn(CC2(O)CCN(C(=O)[C@@H]3CCC(F)(F)C[C@H]3c3ccccc3)CC2)c1=O [Example 38, 5-amino-6-[4-(2,2-difluoroethyl)phenoxy]-3-({1-[(1R,2R)-4,4-difluoro-2-phenylcyclohexane-1-carbonyl]-4-hydroxypiperidin-4-yl}methyl)pyrimidin-4(3H)-one] | 63.9 | 0.128
10 | Nc1c(Oc2ccc(F)c(O)c2)ncn(CC2(O)CCN(C(=O)[C@@H]3CCC(F)(F)C[C@H]3c3ccccc3)CC2)c1=O [Example 41, 5-amino-3-({1-[(1R,2R)-4,4-difluoro-2-phenylcyclohexane-1-carbonyl]-4-hydroxypiperidin-4-yl}methyl)-6-(4-fluoro-3-hydroxyphenoxy)pyrimidin-4(3H)-one] | 42 | 0.0096
11 | CCc1cc(Oc2ncn(CC3(O)CCN(C(=O)[C@@H]4CCC(F)(F)C[C@H]4c4ccccc4)CC3)c(=O)c2N)ccc1Cl [Example 42, 5-amino-6-(4-chloro-3-ethylphenoxy)-3-({1-[(1R,2R)-4,4-difluoro-2-phenylcyclohexane-1-carbonyl]-4-hydroxypiperidin-4-yl}methyl)pyrimidin-4(3H)-one] | 89.7 | 0.169
12 | Nc1c(Oc2ccc(C=O)cc2)ncn(CC2(O)CCN(C(=O)[C@@H]3CCC(F)(F)C[C@H]3c3ccccc3)CC2)c1=O [Example 44] | 38.7 | 0.0736
13 | Nc1c(Oc2ccc(F)cc2)ncn(CC2(O)CCN(C(=O)[C@@H]3CCC(F)(F)C[C@H]3c3ccccc3)CC2(F)F)c1=O (stereo partly drawn) [Example 45, 5-amino-3-({1-[(1R,2R)-4,4-difluoro-2-phenylcyclohexane-1-carbonyl]-3,3-difluoro-4-hydroxypiperidin-4-yl}methyl)-6-(4-fluorophenoxy)pyrimidin-4(3H)-one] | 57 | 0.115
14 | Nc1c(Oc2ccc3c(c2)CC(O)C3)ncn(CC2(O)CCN(C(=O)[C@@H]3CCC(F)(F)C[C@H]3c3ccccc3)CC2)c1=O (stereo partly drawn) [Example 48, 5-amino-3-({1-[(1R,2R)-4,4-difluoro-2-phenylcyclohexane-1-carbonyl]-4-hydroxypiperidin-4-yl}methyl)-6-[(2-hydroxy-2,3-dihydro-1H-inden-5-yl)oxy]pyrimidin-4(3H)-one] | 62 | 0.072
15 | NCc1ccc(Oc2ncn(CC3(O)CCN(C(=O)[C@@H]4CCC(F)(F)C[C@H]4c4ccccc4)CC3)c(=O)c2N)cc1 [Example 59, 5-amino-6-[4-(aminomethyl)phenoxy]-3-({1-[(1R,2R)-4,4-difluoro-2-phenylcyclohexane-1-carbonyl]-4-hydroxypiperidin-4-yl}methyl)pyrimidin-4(3H)-one] | 4.2 | 0.064
16 | NCc1cccc(Oc2ncn(CC3(O)CCN(C(=O)[C@@H]4CCC(F)(F)C[C@H]4c4ccccc4)CC3)c(=O)c2N)c1 [Example 61, 5-amino-6-[3-(aminomethyl)phenoxy]-3-({1-[(1R,2R)-4,4-difluoro-2-phenylcyclohexane-1-carbonyl]-4-hydroxypiperidin-4-hydroxypiperidin-4-yl}methyl)pyrimidin-4(3H)-one] | 9.8 | 0.028
17 | NCc1ccc(Oc2ncn(CC3(O)CCN(C(=O)[C@@H]4CCC(F)(F)C[C@H]4c4ccccc4)CC3)c(=O)c2N)cc1F [Example 65, 5-amino-6-[4-(aminomethyl)-3-fluorophenoxy]-3-({1-[(1R,2R)-4,4-difluoro-2-phenylcyclohexane-1-carbonyl]-4-hydroxypiperidin-4-yl}methyl)pyrimidin-4(3H)-one] | 10 | 0.386
18 | NC(=O)CCc1ccc(Oc2ncn(CC3(O)CCN(C(=O)[C@@H]4CCC(F)(F)C[C@H]4c4ccccc4)CC3)c(=O)c2N)cc1 [Example 67, 3-(4-{[5-amino-1-({1-[(1R,2R)-4,4-difluoro-2-phenylcyclohexane-1-carbonyl]-4-hydroxypiperidin-4-yl}methyl)-6-oxo-1,6-dihydropyrimidin-4-yl]oxy}phenyl)propanamide] | 75 | 0.668
19 | Nc1c(Oc2ccc(CNCC(F)(F)F)cc2)ncn(CC2(O)CCN(C(=O)[C@@H]3CCC(F)(F)C[C@H]3c3ccccc3)CC2)c1=O [Example 73, 5-amino-3-({1-[(1R,2R)-4,4-difluoro-2-phenylcyclohexane-1-carbonyl]-4-hydroxypiperidin-4-yl}methyl)-6-(4-[[(2,2,2-trifluoromethyl)amino]methyl]phenoxy)pyrimidin-4(3H)-one] | 113 | 0.564
20 | Nc1c(Oc2ccc(CNCc3ccccc3)cc2)ncn(CC2(O)CCN(C(=O)[C@@H]3CCC(F)(F)C[C@H]3c3ccccc3)CC2)c1=O [Example 76, 5-amino-6-{4-[(benzylamino)methyl]phenoxy}-3-({1-[(1R,2R)-4,4-difluoro-2-phenylcyclohexane-1-carbonyl]-4-hydroxypiperidin-4-yl}methyl)pyrimidin-4(3H)-one] | 15 | 0.4
21 | Nc1c(Oc2ccc(F)cc2)ncn(C[C@@]2(O)CCN(C(=O)[C@@H]3CCC(F)(F)C[C@H]3c3ccccc3)CC2(F)F)c1=O [Example 78, 5-amino-3-({(4S)-1-[(1R,2R)-4,4-difluoro-2-phenylcyclohexane-1-carbonyl]-3,3-difluoro-4-hydroxypiperidin-4-yl}methyl)-6-(4-fluorophenoxy)pyrimidin-4(3H)-one] | 57.5 | 0.115
22 | Nc1c(Oc2ccccc2)ncn(CC2(O)CCN(C(=O)[C@@H]3CC(F)(F)CC[C@H]3c3ccccc3)CC2)c1=O [Example 82, 5-amino-3-({1-[(1R,2R)-5,5-difluoro-2-phenylcyclohexane-1-carbonyl]-4-hydroxypiperidin-4-yl}methyl)-6-phenoxypyrimidin-4(3H)-one] | 90.3 | 0.18
23 | Nc1c(Oc2ccccc2)ncn(CC2(O)CCN(C(=O)[C@@H]3CCC(F)(F)C[C@H]3n3cccc3)CC2)c1=O [Example 83, 5-amino-3-({1-[(1R,2R)-4,4-difluoro-2-(1H-pyrrol-1-yl)cyclohexane-1-carbonyl]-4-hydroxypiperidin-4-yl}methyl)-6-phenoxypyrimidin-4(3H)-one] | 220 | 0.327
